# Measurements reported in patent US12157730B2, “Heteroaryl derivative, method for producing same, and pharmaceutical composition comprising same as effective component” (VORONOI INC., priority 2019, dated 2024).
# Target: T1, Ba/F3 cell EGFR Exon20 ins NPH (Homo sapiens, UniProt P00533, INS773NPH)
# T1 construct: expressed in transfected cells; host or cells: Ba/F3
# Experiment: Ba/F3 cell proliferation suppression, EGFR Exon20 ins NPH
# Type: cell-based
# Settings: GI50 class; Ba/F3 cell line with NPH inserted at Exon20 of EGFR; 72 hours
# How it was run: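 After 72 h compound exposure (twelve 3-fold steps, 0.3 nM–50 um final), live cells were measured by CellTiter-Glo luminescence and growth expressed as % of control to derive GI50. Cells were seeded at 3000–5000 per well a day earlier; Ba/F3 medium contained IL-3; three repeats.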
row,SMILES,Ba/F3 (NPH) Activity
1,"C#Cc1cccc([C@H]2CCON2c2cc(Nc3cc(NC(=O)C=C)c(N4CCC(N5CCN(C6CCC6)CC5)CC4)cc3OC)ncn2)c1 [Example 191, N-(2-(4-(4-cyclobutylpiperazine-1-yl)piperidine-1-yl)-5-((6-((R)-3-(3-ethynylphenyl)isoxazolidine-2-yl)pyrimidine-4-yl)amino)-4-methoxyphenyl) acrylamide]",A (GI50 < 50 nM)
2,"C=CC(=O)Nc1cc(Nc2cc(N3OCC[C@@H]3c3cc(F)cc(Cl)c3)ncn2)c(OC)cc1N1CCC(N2CCN(C3CC3)[C@H](C)C2)CC1 [Example 158, N-(5-((6-((R)-3-(3-chloro-5-fluorophenyl)isoxazolidine-2-yl)pyrimidine-4-yl)amino)-2-(4-((R)-4-cyclopropyl-3-methylpiperazine-1-yl)piperidine-1-yl)-4-methoxyphenyl) acrylamide]",A (GI50 < 50 nM)
3,"C=CC(=O)Nc1cc(Nc2cc(N3OCC[C@H]3Cc3ccccc3)ncn2)c(OC)cc1N1CCN(C2CCCC2)CC1 [compound 977, N-(5-((6-((R)-3-benzylisoxazolidine-2-yl)pyrimidine-4-yl)amino)-2-(4-cyclopentylpiperazine-1-yl)-4-methoxyphenyl) acrylamide]",C (500 nM ≤ GI50 < 5000 nM)
4,"C=CC(=O)Nc1cc(Nc2cc(N3OCC[C@@H]3c3cc(F)cc(F)c3)ncn2)c(OC)cc1N1CCC(N2C[C@@H](C)N(C3CC3)C[C@H]2C)CC1 [Example 114, N-(2-(4-((2R,5R)-4-cyclopropyl-2,5-dimethylpiperazine-1-yl)piperidine-1-yl)-5-((6-((R)-3-(3,5-difluorophenyl)isoxazolidine-2-yl)pyrimidine-4-yl)amino)-4-methoxyphenyl) acrylamide]",A (GI50 < 50 nM)
5,"C=CC(=O)Nc1cc(Nc2cc(N3OCC[C@@H]3Cc3ccccc3)ncn2)c(OC)cc1N1CCC(N2CCN(C3CC3)CC2)CC1 [compound 955, N-(5-((6-((S)-3-benzylisoxazolidine-2-yl)pyrimidine-4-yl)amino)-2-(4-(4-cyclopropylpiperazine-1-yl)piperidine-1-yl)-4-methoxyphenyl) acrylamide]",A (GI50 < 50 nM)
6,"C=CC(=O)Nc1cc(Nc2cc(N3OCC[C@@H]3Cc3cccc(F)c3Cl)ncn2)c(OC)cc1N1CCC(N2CCN(C3CC3)[C@H](C)C2)CC1 [compound 1036, N-(5-((6-((S)-3-(2-chloro-3-fluorobenzyl)isoxazolidine-2-yl)pyrimidine-4-yl)amino)-2-(4-((R)-4-cyclopropyl-3-methylpiperazine-1-yl)piperidine-1-yl)-4-methoxyphenyl) acrylamide]",A (GI50 < 50 nM)
7,"C=CC(=O)Nc1cc(Nc2cc(N3OCC[C@@H]3c3cc(F)cc(F)c3)ncn2)c(OC)cc1N1CCN(C2COC2)CC1 [Example 273, N-(5-((6-((R)-3-(3,5-difluorophenyl)isoxazolidine-2-yl)pyrimidine-4-yl)amino)-4-methoxy-2-(4-(oxetane-3-yl)piperazine-1-yl)phenyl)acrylamide]",B (50 nM ≤ GI50 < 500 nM)
8,"C=CC(=O)Nc1cc(Nc2cc(N3OCC[C@@H]3c3cccc(C(F)(F)F)c3)ncn2)c(OC)cc1N1CCC(N2C[C@@H]3C[C@H]2CO3)CC1 [compound 944, N-(2-(4-((1S,4S)-2-oxa-5-azabicyclo [2.2.1]heptane-5-yl)piperidine-1-yl)-4-methoxy-5-((6-((R)-3-(3-(trifluoromethyl)phenyl)isoxazolidine-2-yl)pyrimidine-4-yl)amino)phenyl) acrylamide]",A (GI50 < 50 nM)
9,"C=CC(=O)Nc1cc(Nc2cc(N3OCC[C@@H]3c3cc(F)cc(F)c3)ncn2)c(OC)cc1N1CCC(N2CCN(C3CC3)C[C@@H]2C)CC1 [Example 111, N-(2-(4-((S)-4-cyclopropyl-2-methylpiperazine-1-yl)piperidine-1-yl)-5-((6-((R)-3-(3,5-difluorophenyl)isoxazolidine-2-yl)pyrimidine-4-yl)amino)-4-methoxyphenyl) acrylamide]",A (GI50 < 50 nM)
10,"C=CC(=O)Nc1cc(Nc2cc(N3OCC[C@@H]3c3cccc(Cl)c3F)ncn2)c(OC)cc1N1CCC(N2CCN(C)CC2)CC1 [compound 747, N-(5-((6-((R)-3-(3-chloro-2-fluorophenyl)isoxazolidine-2-yl)pyrimidine-4-yl)amino)-4-methoxy-2-(4-(4-methylpiperazine-1-yl)piperidine-1-yl)phenyl) acrylamide]",A (GI50 < 50 nM)
11,"C=CC(=O)Nc1cc(Nc2cc(N3OCC[C@@H]3c3ccc(Cl)cc3F)ncn2)c(OC)cc1N1CCC(N2CCOCC2)CC1 [compound 455, N-(5-((6-((R)-3-(4-chloro-2-fluorophenyl)isoxazolidine-2-yl)pyrimidine-4-yl)amino)-4-methoxy-2-(4-morpholinopiperidine-1-yl)phenyl)acrylamide]",A (GI50 < 50 nM)
12,"C=CC(=O)Nc1cc(Nc2cc(N3OCC[C@@H]3c3cc(F)cc(Cl)c3)ncn2)c(OC)cc1N1CCC(N2CCN(C(C)C)CC2)CC1 [compound 593, N-(5-((6-((R)-3-(3-chloro-5-fluorophenyl)isoxazolidine-2-yl)pyrimidine-4-yl)amino)-2-(4-(4-isopropylpiperazine-1-yl)piperidine-1-yl)-4-methoxyphenyl) acrylamide]",A (GI50 < 50 nM)
13,"C=CC(=O)Nc1cc(Nc2cc(N3OCC[C@@H]3c3ccccc3)ncn2)c(OC)cc1N1CCC(N2CCC(N(C)C)CC2)CC1 [compound 740, N-(2-(4-(dimethylamino)-[1,4'-bipiperidine]-1'-yl)-4-methoxy-5-((6-((R)-3-phenylisoxazolidine-2-yl)pyrimidine-4-yl)amino)phenyl)acrylamide]",A (GI50 < 50 nM)
14,"C=CC(=O)Nc1cc(Nc2cc(N3OCC[C@@H]3c3cccc(F)c3)ncn2)c(OC)cc1N1CCC(N2CC[C@H](N(C)C)C2)CC1 [compound 744, N-(2-(4-((S)-3-(dimethylamino)pyrolidine-1-yl)piperidine-1-yl)-5-((6-((R)-3-(3-fluorophenyl)isoxazolidine-2-yl)pyrimidine-4-yl)amino)-4-methoxyphenyl) acrylamide]",A (GI50 < 50 nM)
15,"C=CC(=O)Nc1cc(Nc2cc(N3OCC[C@@H]3c3ccc(C)nc3)ncn2)c(OC)cc1N1CCC(N2CCN(CC)CC2)CC1 [Example 41, N-(2-(4-(4-ethylpiperazine-1-yl)piperidine-1-yl)-4-methoxy-5-((6((R)-3-(6-methylpyridine-3-yl)isoxazolidine-2-yl)pyrimidine-4-yl)amino)phenyl) acrylamide]",B (50 nM ≤ GI50 < 500 nM)
16,"C=CC(=O)Nc1cc(Nc2cc(N3OCC[C@@H]3c3ccc(Cl)cc3)ncn2)c(OC)cc1N1CC[C@@H](N2CCOCC2)C1 [compound 733, N-(5-((6-((R)-3-(4-chlorophenyl)isoxazolidine-2-yl)pyrimidine-4-yl)amino)-4-methoxy-2-((R)-3-morpholinopyrolidine-1-yl)phenyl)acrylamide]",A (GI50 < 50 nM)
17,"C=CC(=O)Nc1cc(Nc2cc(N3OCC[C@@H]3c3ccc(Cl)c(Cl)c3)ncn2)c(OC)cc1N1CCN(C)CC1 [compound 670, N-(5-((6-((R)-3-(3,4-dichlorophenyl)isoxazolidine-2-yl)pyrimidine-4-yl)amino)-4-methoxy-2-(4-methylpiperazine-1-yl)phenyl)acrylamide]",A (GI50 < 50 nM)
18,"C=CC(=O)Nc1cc(Nc2cc(N3OCC[C@@H]3Cc3cccc(F)c3Cl)ncn2)c(OC)cc1N1CCN(C2CC2)CC1 [compound 1006, N-(5-((6-((S)-3-(2-chloro-3-fluorobenzyl)isoxazolidine-2-yl)pyrimidine-4-yl)amino)-2-(4-cyclopropylpiperazine-1-yl)-4-methoxyphenyl) acrylamide]",A (GI50 < 50 nM)
19,"C=CC(=O)Nc1cc(Nc2cc(N3OCC[C@@H]3c3cc(F)cc(F)c3)ncn2)c(OC)cc1N1CCC(N2C[C@H](C)O[C@@H](C)C2)CC1 [compound 752, N-(5-((6-((R)-3-(3,5-difluorophenyl)isoxazolidine-2-yl)pyrimidine-4-yl)amino)-2-(4-((2S,6S)-2,6-dimethylmorpholino)piperidine-1-yl)-4-methoxyphenyl) acrylamide]",A (GI50 < 50 nM)
20,"C=CC(=O)Nc1cc(Nc2cc(N3OCC[C@@H]3c3cc(F)ccc3F)ncn2)c(OC)cc1N1CCC(N(C)C)CC1 [compound 819, N-(5-((6-((R)-3-(2,5-difluorophenyl)isoxazolidine-2-yl)pyrimidine-4-yl)amino)-2-(4-(dimethylamino)piperidine-1-yl)-4-methoxyphenyl) acrylamide]",A (GI50 < 50 nM)
21,"C=CC(=O)Nc1cc(Nc2cc(N3OCC[C@@H]3c3ccc(F)c(F)c3)ncn2)c(OC)cc1N(C)CCN(C)C [compound 457, N-(5-((6-((R)-3-(3,4-difluorophenyl)isoxazolidine-2-yl)pyrimidine-4-yl)amino)-2-((2-(dimethylamino)ethyl)(methyl)amino)-4-methoxyphenyl) acrylamide]",A (GI50 < 50 nM)
22,"C=CC(=O)Nc1cc(Nc2cc(N3OCC[C@@H]3c3cccc(Cl)c3)ncn2)c(OC)cc1N1CCC(N2CCN(C(C)C)CC2)CC1 [compound 461, N-(5-((6-((R)-3-(3-chlorophenyl)isoxazolidine-2-yl)pyrimidine-4-yl)amino)-2-(4-(4-isopropylpiperazine-1-yl)piperidine-1-yl)-4-methoxyphenyl) acrylamide]",A (GI50 < 50 nM)
